Results reported in patent US10787432B2, “N-[(pyridyloxy)propanyl]benzamides” (Boehringer Ingelheim International GmbH, priority 2016, dated 2020).

tested on: not listed separately; assay: Assay C: Metabolic stability in human liver microsomes (Human MST); type: in vitro ADME; conditions: pooled human liver microsomes, pH 7.6; human liver microsomes 1 mg/mL, compound 1 μM, 37° C., NADPH; read-out: Human MST t1/2
Method: C. Assessment of Metabolic Stability in Human Liver Microsomes (Human MST)
The metabolic stability of the compounds according to the invention may be investigated as follows:
The metabolic degradation of the test compound is assayed at 37° C. with pooled human liver microsomes. The final incubation volume of 100 μL per time point contains TRIS buffer pH 7.6 at room temperature (0.1 M), MgCl2 (5 mM), microsomal protein (1 mg/mL) and the test compound at a final concentration of 1 μM. Following a short pre-incubation period at 37° C., the reactions are initiated by addition of beta-nicotinamide adenine dinucleotide phosphate, reduced form (NADPH, 1 mM), and terminated by transferring an aliquot into solvent after different time points. After centrifugation (10000 g, 5 min), an aliquot of the supernatant is assayed by LC-MS/MS for the amount of parent compound. The half-life (t1/2) is determined by the slope of the semi-logarithmic plot of the concentration-time profile.

SMILES	half-life at 1 μM [min]
CC[C@@H](CNc1ccc(Cl)cn1)N(C)C(=O)c1cc(C)ccc1-n1nccn1 [Ex 1 in WO2016/034882, reference compound]	5
CC[C@@H](CNc1ccc(C(F)(F)F)cn1)N(C)C(=O)c1cc(Cl)ccc1-n1nccn1 [Ex 42 in WO2016/034882, reference compound]	7
CCN(C(=O)c1ccc(F)cc1-n1nccn1)[C@@H](C)COc1ccc(C(F)(F)F)cn1 [Example 1]	38
CCN(C(=O)c1cc(F)ccc1-n1nccn1)[C@@H](C)COc1ccc(C(F)(F)F)cn1 [Example 3]	62
CCN(C(=O)c1cc(F)c(F)cc1-n1nccn1)[C@@H](C)COc1ccc(C(F)(F)F)cn1 [Example 4]	61
CCN(C(=O)c1ccccc1-n1nccn1)[C@@H](C)COc1ccc(C(F)(F)F)cn1 [Example 10]	24
CCN(C(=O)c1cc(F)cc(F)c1-n1nccn1)[C@@H](C)COc1ccc(C(F)(F)F)cn1 [Example 13]	49
CCN(C(=O)c1ccc(F)cc1-c1nnc(C)o1)[C@@H](C)COc1ccc(C(F)(F)F)cn1 [Example 14]	> 130
CCN(C(=O)c1cc(OC)ccc1-n1nccn1)[C@@H](C)COc1ccc(C(F)(F)F)cn1 [Example 15]	16
CCN(C(=O)c1cccc(F)c1-c1nnc(C)o1)[C@@H](C)COc1ccc(C(F)(F)F)cn1 [Example 18]	74
CCN(C(=O)c1cccc(C)c1-c1nnc(C)o1)[C@@H](C)COc1ccc(C(F)(F)F)cn1 [Example 20]	20
CCN(C(=O)c1ccccc1-c1nnc(C)o1)[C@@H](C)COc1ccc(C(F)(F)F)cn1 [Example 22]	84

target: T1, human Orexin 1 receptor (Homo sapiens, UniProt O43613); assay: Assay A: In vitro testing of OX1R potency: OX1R IP1 (HTRF, CHO-K1/hOX1 cells, Orexin A as agonist); type: cell-based; conditions: OX1R Kb at 0.5 nM Orexin A
T1 construct: stably expressing the full-length human Orexin 1 receptor; expressed in transfected cells; host or cells: CHO-K1 (CHO-K1/hOX1), co-expressing aequorin
T1 sequence (O43613 1-425): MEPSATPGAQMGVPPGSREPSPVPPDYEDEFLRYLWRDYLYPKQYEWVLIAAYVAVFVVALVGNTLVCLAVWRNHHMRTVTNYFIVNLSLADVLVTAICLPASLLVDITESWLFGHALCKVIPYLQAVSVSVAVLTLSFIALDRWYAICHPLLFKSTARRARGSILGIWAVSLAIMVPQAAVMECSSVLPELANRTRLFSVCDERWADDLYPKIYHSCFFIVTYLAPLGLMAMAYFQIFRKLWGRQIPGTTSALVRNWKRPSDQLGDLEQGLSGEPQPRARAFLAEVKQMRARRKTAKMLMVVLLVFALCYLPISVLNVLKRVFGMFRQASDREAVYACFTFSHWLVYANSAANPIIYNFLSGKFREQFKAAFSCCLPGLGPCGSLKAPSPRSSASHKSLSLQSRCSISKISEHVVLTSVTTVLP

SMILES	OX2R Kb/OX1R Kb
CCN(C(=O)c1ccc(F)cc1-n1nccn1)[C@@H](C)COc1ccc(C(F)(F)F)cn1 [Example 1]	171
CCN(C(=O)c1cc(F)c(F)cc1-n1nccn1)[C@@H](C)COc1ccc(C(F)(F)F)cn1 [Example 4]	276
CCN(C(=O)c1ccc(F)cc1-c1nnc(C)o1)[C@@H](C)COc1ccc(C(F)(F)F)cn1 [Example 14]	461
CCN(C(=O)c1cccc(F)c1-c1nnc(C)o1)[C@@H](C)COc1ccc(C(F)(F)F)cn1 [Example 18]	273
CCN(C(=O)c1ccccc1-c1nnc(C)o1)[C@@H](C)COc1ccc(C(F)(F)F)cn1 [Example 22]	217

same assay, conditions: OX1R Kb at 50 nM Orexin A

SMILES	OX2R Kb/OX1R Kb
CCN(C(=O)c1cc(F)ccc1-n1nccn1)[C@@H](C)COc1ccc(C(F)(F)F)cn1 [Example 3]	157
CCN(C(=O)c1cc(F)c(F)cc1-n1nccn1)[C@@H](C)COc1ccc(C(F)(F)F)cn1 [Example 4]	187
CCN(C(=O)c1ccccc1-n1nccn1)[C@@H](C)COc1ccc(C(F)(F)F)cn1 [Example 10]	117
CCN(C(=O)c1cc(F)cc(F)c1-n1nccn1)[C@@H](C)COc1ccc(C(F)(F)F)cn1 [Example 13]	511
CCN(C(=O)c1cc(OC)ccc1-n1nccn1)[C@@H](C)COc1ccc(C(F)(F)F)cn1 [Example 15]	250
CCN(C(=O)c1cccc(C)c1-c1nnc(C)o1)[C@@H](C)COc1ccc(C(F)(F)F)cn1 [Example 20]	292
CCN(C(=O)c1ccccc1-c1nnc(C)o1)[C@@H](C)COc1ccc(C(F)(F)F)cn1 [Example 22]	168

same assay, conditions: Orexin A 0.5 nM; read-out: OX1R Kb (Orexin A concentration used)

SMILES	Kb [nM]
CCN(C(=O)c1ccc(F)cc1-n1nccn1)[C@@H](C)COc1ccc(C(F)(F)F)cn1 [Example 1]	0.34
CCN(C(=O)c1cc(F)c(F)cc1-n1nccn1)[C@@H](C)COc1ccc(C(F)(F)F)cn1 [Example 4]	0.5
CCN(C(=O)c1ccc(F)cc1-c1nnc(C)o1)[C@@H](C)COc1ccc(C(F)(F)F)cn1 [Example 14]	4.5
CCN(C(=O)c1cccc(F)c1-c1nnc(C)o1)[C@@H](C)COc1ccc(C(F)(F)F)cn1 [Example 18]	0.8
CCN(C(=O)c1ccccc1-c1nnc(C)o1)[C@@H](C)COc1ccc(C(F)(F)F)cn1 [Example 22]	0.93

same assay, conditions: Orexin A 50 nM; read-out: OX1R Kb (Orexin A concentration used)

SMILES	Kb [nM]
CCN(C(=O)c1cc(F)ccc1-n1nccn1)[C@@H](C)COc1ccc(C(F)(F)F)cn1 [Example 3]	0.28
CCN(C(=O)c1cc(F)c(F)cc1-n1nccn1)[C@@H](C)COc1ccc(C(F)(F)F)cn1 [Example 4]	0.74
CCN(C(=O)c1ccccc1-n1nccn1)[C@@H](C)COc1ccc(C(F)(F)F)cn1 [Example 10]	0.18
CCN(C(=O)c1cc(F)cc(F)c1-n1nccn1)[C@@H](C)COc1ccc(C(F)(F)F)cn1 [Example 13]	0.18
CCN(C(=O)c1cc(OC)ccc1-n1nccn1)[C@@H](C)COc1ccc(C(F)(F)F)cn1 [Example 15]	0.06
CCN(C(=O)c1cccc(C)c1-c1nnc(C)o1)[C@@H](C)COc1ccc(C(F)(F)F)cn1 [Example 20]	0.12
CCN(C(=O)c1ccccc1-c1nnc(C)o1)[C@@H](C)COc1ccc(C(F)(F)F)cn1 [Example 22]	1.2

target: T2, human orexin 2 receptor (Homo sapiens, UniProt O43614); assay: Assay B: In vitro testing of OX2R potency: OX2R IP1 (HTRF, CHO-K1/hOX2 cells, Orexin A as agonist); type: cell-based; conditions: Orexin A 0.5 nM
T2 construct: stably expressing the full-length human orexin 2 receptor; expressed in transfected cells; host or cells: CHO-K1 (CHO-K1/hOX2), co-expressing aequorin
T2 sequence (O43614 1-444): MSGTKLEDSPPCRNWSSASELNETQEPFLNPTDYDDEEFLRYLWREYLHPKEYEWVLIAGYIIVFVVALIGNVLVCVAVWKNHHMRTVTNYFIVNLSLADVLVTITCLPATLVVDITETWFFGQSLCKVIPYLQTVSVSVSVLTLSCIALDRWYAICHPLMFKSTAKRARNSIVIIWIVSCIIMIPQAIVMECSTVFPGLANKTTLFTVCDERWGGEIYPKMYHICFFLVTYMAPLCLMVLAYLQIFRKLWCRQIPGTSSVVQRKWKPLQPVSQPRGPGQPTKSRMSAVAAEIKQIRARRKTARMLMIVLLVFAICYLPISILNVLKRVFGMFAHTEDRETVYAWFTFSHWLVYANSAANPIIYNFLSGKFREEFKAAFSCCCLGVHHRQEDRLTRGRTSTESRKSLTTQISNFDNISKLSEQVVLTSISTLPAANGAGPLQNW
Excerpt: Activation of the orexin receptors expressed in cell lines results in an increase in intracellular IP3 concentration. IP1, a downstream metabolite of IP3, accumulates in cells following receptor activation and is stable in the presence of LiCl. Using Homogeneous Time-Resolved Fluorescence technology with Lumi4-Tb cryptate (commercially available from Cisbio Bioassay.) and a suitable fluorescence plate reader. […] Chem. Genomics 2009, 3, 22-32. This technique is used to characterize pharmacological modification of the orexin receptors.
B. In Vitro Testing of OX2R Potency: OX2R IP1
IP1 measurements are performed in CHO-K1 cells stably expressing the full-length human orexin 2 receptor and the aequorin photoprotein. Cells are cultivated in Ham's nutrient mixture F12 medium with 10% fetal calf serum, in a 37° C., 95% humidity and 5% CO2 incubator. The CHO-K1/hOX2 cell mass is expanded to larger cell numbers. The cells are obtained as frozen cells in cryo-vials and stored until use at −150° C. The viability of the cells after thawing is >90%. In preparation for the assay, 24 hours before the assay, the cells are thawed at 37° C. and immediately diluted with cell culture medium. After centrifugation, the cell pellet is resuspended in medium and then distributed into the assay plates with a density of 5000 cells/25 μL per well. The plates are incubated for one hour at room temperature to reduce edge effects before they are incubated for 24 hours at 37° C./5% CO2. Compounds are prepared by a 8-point serial dilution in DMSO and a final dilution step into assay buffer (HBSS with 20 mM HEPES, 0.1% BSA and 50 mM LiCl, pH 7.4) to ensure a final DMSO concentration of 1% in the assay.
On the day of the assay, cells in the plate are washed twice with 60 μL assay buffer (20 μL buffer remained in the wells after washing), followed by adding 5 μL per well of compounds diluted in assay buffer. After 15 minutes of incubation at room temperature 5 μL per well of Orexin A peptide (final concentration: 0.5 nM) dissolved in assay buffer is added to the assay plate. The assay plate is incubated for 60 minutes at 37° C. Then 5 μL per well of Anti-IP1-Cryptate Tb solution and 5 μL per well of IP1-d2 dilution are added to all well of the plate and the plate is incubated for a further 60 minutes light protected at room temperature. The emission at 615 nm and 665 nm (Excitation wavelength: 320 nm) are measured using an EnVision reader (PerkinElmer). The ratio between the emission at 665 nm and 615 is calculated by the reader.
8-point four parametric non-linear curve fitting and determination of IC50 values and Hill slopes is performed using a regular analysis software e.g. AssayExplorer (Accelrys). In order to establish an agonist concentration independent parameter, Kb values are calculated using the following equation: IC50/((2+(A/EC50)n)^1/n−1) (with A=concentration agonist, EC50=EC50 agonist, n=Hill slope agonist) (see P. Leff, I. G. Dougall, Trends Pharmacol. Sci. 1993, 14(4), 110-112).
Kb values from Assay A (OX1R) and Assay B (OX2R) can then provide a selectivity ratio which is independent of the agonist (Orexin A) concentration.

SMILES	Kb [nM]
CC[C@@H](CNc1ccc(Cl)cn1)N(C)C(=O)c1cc(C)ccc1-n1nccn1 [Ex 1 in WO2016/034882, reference compound]	36
CC[C@@H](CNc1ccc(C(F)(F)F)cn1)N(C)C(=O)c1cc(Cl)ccc1-n1nccn1 [Ex 42 in WO2016/034882, reference compound]	229
CCN(C(=O)c1ccc(F)cc1-n1nccn1)[C@@H](C)COc1ccc(C(F)(F)F)cn1 [Example 1]	58
CCN(C(=O)c1cc(F)ccc1-n1nccn1)[C@@H](C)COc1ccc(C(F)(F)F)cn1 [Example 3]	44
CCN(C(=O)c1cc(F)c(F)cc1-n1nccn1)[C@@H](C)COc1ccc(C(F)(F)F)cn1 [Example 4]	138
CCN(C(=O)c1ccccc1-n1nccn1)[C@@H](C)COc1ccc(C(F)(F)F)cn1 [Example 10]	21
CCN(C(=O)c1cc(F)cc(F)c1-n1nccn1)[C@@H](C)COc1ccc(C(F)(F)F)cn1 [Example 13]	92
CCN(C(=O)c1ccc(F)cc1-c1nnc(C)o1)[C@@H](C)COc1ccc(C(F)(F)F)cn1 [Example 14]	2070
CCN(C(=O)c1cc(OC)ccc1-n1nccn1)[C@@H](C)COc1ccc(C(F)(F)F)cn1 [Example 15]	15
CCN(C(=O)c1cccc(F)c1-c1nnc(C)o1)[C@@H](C)COc1ccc(C(F)(F)F)cn1 [Example 18]	218
CCN(C(=O)c1cccc(C)c1-c1nnc(C)o1)[C@@H](C)COc1ccc(C(F)(F)F)cn1 [Example 20]	35
CCN(C(=O)c1ccccc1-c1nnc(C)o1)[C@@H](C)COc1ccc(C(F)(F)F)cn1 [Example 22]	202
